Read-outs that look alike come from different tables or passages of the source.
Columns and labels:
platelet aggregation = assay: Test of Platelet Aggregation Inhibition (in vitro), human PRP; assay type: cell-based; settings: for IC50: Homo sapiens, Platelet, human blood, read-out: Platelet Aggregation Inhibitory Activity (in vitro: IC50)
Procedure: The test was performed as follows in accordance with the method of Ashida et al, Thrombosis and Haemostasis, Vol. 40, p542 (1979).
Blood was taken by puncture from the heart of a Wistar Imamichi rat under anesthesia with pentobarbital into a syringe containing 1/10 volume of a 3.13% aqueous solution of sodium citrate dihydrate, and the citrated blood was centrifuged to obtain a platelet-rich-plasma (PRP). In the same manner, citrated blood was collected from the vein of a healthy human who had not taken aspirin or any other anti-inflammatory agent since before 10 days, followed by centrifugation to obtain PRP. 0.005 ml of each test compound was added to 0.445 ml each of these PRP samples, and the system was warmed at 30° C. for 1 minute. 0.05 ml of an aggregation inducer (ADP or collagen) was then added thereto, and platelet aggregation was determined according to the method of Born, Nature, Vol. 194, p927 (1962). The inhibitory activity of platelet aggregation was expressed in terms of 50% inhibition concentration, and the results obtained are shown in Table 2.

[1] = tested on: Water Immersion and Immobilization-induced Gastric Ulcer; assay: Effect on Water Immersion and Immobilization-induced Gastric Ulcer in Rats; assay type: in vivo, rat (Donryu male); settings: p.o.
Procedure: Donryu male rats having a body weight of 352 to 414 g were subjected to the stress-induced gastric ulceration test by water-immersion and immobilization [Takagi and Okabe, Japan J. Pharmacol., 18, 9-18 (1968)] at a water temperature of 20° to 22° C. for 7 hours. Compound (I) was administered orally in the form of a suspension in a 0.5% aqueous CMC solution at a dose of 5 ml/Kg 30 minutes before loading the stress. After the test period, the rats were sacrificed and the hyperemic area and the erosious area on the stomach inside wall were measured to determine % inhibition of the ulcer.

## O=C1CN2Cc3cc(N4CCCCC4)ccc3N=C2N1 [Compound (I), 7-piperidino-1,2,3,5-tetrahydroimidazo[2,1-b]quinazolin-2-one]
Platelet aggregation; inducer ADP
  IC50: 2500 nM
Platelet aggregation; inducer collagen
  IC50: 530 nM
Platelet aggregation; in vitro, Table 2 results (human and rat PRP)
  anti-platelet aggregation activity (in words): substantially equal to that of BL-3459 and BL-4162
[1]; 30 mg/kg
  Ulcer Index, Erosious Area: 17.8 ± 5.7 mm
  Ulcer Index, Erosious Area, Inhibition: 32%
  Ulcer Index, Hyperemic Area: 19.4 ± 9.0 mm
  Ulcer Index, Hyperemic Area, Inhibition: 69%
[1]; 100 mg/kg
  Ulcer Index, Erosious Area: 1.3 ± 0.8 mm
  Ulcer Index, Erosious Area, Inhibition: 95%
  Ulcer Index, Hyperemic Area: 0 mm
  Ulcer Index, Hyperemic Area, Inhibition: 100%
[1]; 300 mg/kg
  Ulcer Index, Erosious Area: 2.6 ± 1.3 mm
  Ulcer Index, Erosious Area, Inhibition: 90%
  Ulcer Index, Hyperemic Area: 0 mm
  Ulcer Index, Hyperemic Area, Inhibition: 100%
